Series [1] is described as follows: stability in human liver microsomes. It is filed as in vitro ADME. Particulars: both sexes, human liver microsomes, pH 7.4, 1 μM, HLM 0.5 mg/mL, 37°C, 1 h, mean of duplicates, read-out: HLM stability t1/2. As for the experimental part:
Experiments were performed by Pharmaron, Inc., China. […] Negative control samples were prepared by replacing the NADPH solution with ultrapure H2O. The negative controls were used to exclude the confounding variable of test compound instability. Experiments involving NADPH were carried out in duplicate. Negative controls were prepared in singlet. Aliquots (90 µL) were taken at 0, 15, 30, 45, and 60 min of incubation. The microsomal reaction in each aliquot was stopped by the addition of four volumes of cold acetonitrile containing internal standards (100 nM alprazolam, 200 nM imipramine, 200 nM labetalol, and 2 µM ketoprofen). The samples were centrifuged at 3,220 × g for 40 min, and an aliquot (90 µL) of the supernatant was mixed with 90 µL of ultrapure H2O. The resulting mixture was used for liquid chromatography–tandem mass spectrometry (LC-MS/MS) analysis (Shimadzu and SCIEX Triple Quad 4500). Peak areas were determined from extracted ion chromatograms. A slope, k, was determined by linear regression analysis of a plot of the natural logarithm of the remaining percentage of the parent drug versus incubation time. The in vitro t1/2 (min) was determined from the slope: in vitro t1/2=−(0.693/k) In vitro t1/2 (min, mean of duplicate determinations) was converted to in vitro intrinsic clearance (in vitro Clint, μL/(min·µg protein)) by means of the following equation : in vitro Clint=(0.693/t1/2)×(volume of incubation (μL)/amount of protein (μg))

The next series has as its system HepG2 cells. Particulars: cited from earlier work.
A further series relates to M. leprae. Description: Shepard's mouse footpad model: bacilli count and molecular viability. The format is in vivo, Mycobacterium leprae. The conditions noted are these: Balb/c mice, 1 month, vehicle median 8.110 × 10^4. As for the experimental part:
Animal experimentation was conducted under approval by the ILSL ethical committee ([…] 02/19). Balb/c female mice with 8-week-old were inoculated with 5 × 10^3 live M. leprae bacilli, strain Thai-53, in both hind footpads, as previously described for the Shepard's model ([25]). Eight groups were tested in the experiment: (i) M. leprae control group (n = 5) inoculated with M. leprae and no additional treatment; (ii) vehicle control group (n = 4) inoculated with M. leprae and treatment with vehicle of the drugs; (iii) regular rifampicin treatment, 10 mg/Kg dose; […] (v) compound 2 treatment (n = 4), 50 mg/kg dose; […] One month after inoculation, mice from the control group were euthanized and the hind footpad was collected to assess the establishment of the infection by bacillary enumeration. At that time point, vehicle or drug treatment was started for the remaining groups. All compounds were administrated by gavage, rifampicin was administered weekly, and the compounds were administered daily (excluding weekends) for 1 month (20 doses). Mice were euthanized 6 h after administration of the last dose, and blood was collected in heparin-coated tubes by cardiac puncture for blood enzyme evaluation and compound 5 measurement by LC/MS in the plasma. The infected hind footpads from each group of mice were excised, homogenized and bacilli enumerated in a 100 μL aliquot as previously described ([26]). The remaining homogenate was centrifuged at 12,000 × g for 15 min, the supernatant was discarded, and the pellet was suspended in 750 μL of RNA later solution (Thermo Fisher Scientific). The homogenized tissue pellet was incubated at 4°C for 16 h and stored at -80°C until determination of M. leprae viability was performed by RT-qPCR ([27], [28]). […] RNA and DNA extractions were performed as previously described ([10], [27]). RNA samples were treated with the Turbo DNA-free kit (Thermo Fisher Scientific), and 1,000 ng of DNAse-treated RNA was then used to synthesize the cDNA using the GoScript kit (Promega, USA).

Usually IC50 stands for the concentration that gives 50% inhibition. In the case of `C[C@]12CCC3C(CN(CCCF)C4CC(=O)CC[C@]34C)C1CCC2C(=O)Nc1cc(C(F)(F)F)ccc1C(F)(F)F` (some centres unmarked) [Compound 3], the half-life at 1 µM in series [1] was found to be 0.75 h. The IC50 in the series on HepG2 cells is greater than 100 µM.

Take `C[C@]12CCC3C(CN(CCC(F)(F)F)C4CC(=O)CC[C@]34C)C1CCC2C(=O)Nc1cc(C(F)(F)F)ccc1C(F)(F)F` (some centres unmarked) [Compound 4]: the half-life at 1 µM in series [1] stood at 1.05 h. Also, the IC50 in the series with HepG2 cells is greater than 100 µM.

Regarding `CCCN1CC2C3CCC(C(=O)NC(c4ccc(F)cc4)c4ccc(F)cc4)[C@@]3(C)CCC2[C@@]2(C)CCC(=O)C=C12` (some centres unmarked) [Compound 6], the half-life at 1 µM in series [1] is 5.62 h. In addition, the IC50 in the series with HepG2 cells is greater than 100 µM.

On to `CO[C@H]1/C=C/O[C@@]2(C)Oc3c(C)c(O)c4c(O)c(c(/C=N/N5CCN(C)CC5)c(O)c4c3C2=O)NC(=O)/C(C)=C\C=C\[C@H](C)[C@H](O)[C@@H](C)[C@@H](O)[C@@H](C)[C@H](OC(C)=O)[C@@H]1C` [rifampicin, reference compound], for which the “bacillary load in footpad, median” value in the series with M. leprae (rifampicin 10 mg/kg weekly by gavage) is 0.438 × 10^4; in the series on M. leprae (sub-inhibitory rifampicin 1 mg/kg weekly by gavage) it was 7.890 × 10^4.

The values are drawn from article PMC12210912, “Pharmacologic properties and inhibitory activity of 6-azasteroids against Mycobacterium leprae in vivo and in vitro” (Microbiology Spectrum, 2025).
